Test results: patent publication US9145351B2, “Azole derivatives, methods for producing the same, intermediate thereof, agro-horticultural agents” (KUREHA CORPORATION, priority 2009, dated 2015)
≈ marks a conversion by molar mass, not a printed value.

Legend:
[1] = tested on: Puccinia recondita; experiment: Efficacy test against wheat brown rust, 1 mg/L (Experimental Example 10); type: in vivo; details: 1 g/ha (1 mg/L sprayed at 1,000 L/ha)
[2] = tested on: Septoria tritici; experiment: Microplate test of biocidal effect on wheat Septoria blotch (Experimental Example 4); type: cell-based; details: Zymoseptoria tritici, 240 h; % mycelium growth inhibition, absorbance 550 nm, 20 degrees C. for about 10 days; read-out: activity level (EC80)
Protocol: A spore suspension of wheat Septoria blotch (Septoria tritici) (spore concentration: 1×10^6 cells/ml) was prepared, and subjected to 100-fold dilution with a PD medium. A flat 96-well microplate was provided and 1 microliter of the test compound solution formed by dissolution in dimethyl sulfoxide (DMSO) at a concentration 100 times the test concentration was dispensed to the microplate, and then 100 microliter of the medium containing the spore was added and stirred thoroughly. […] R=100×(dc−dt)/dc: R: % mycelium growth inhibition dc: Absorbance of non-treatment zone dt: Absorbance of treatment zone

[3] = tested on: Septoria tritici; experiment: Assay for fungicidal effect on Septoria tritici, plate medium 1.25 mg/L (Experimental Example 9); type: cell-based; details: Zymoseptoria tritici, read-out: growth inhibition grade
Protocol: Each inventive compound was dissolved in 2 ml of dimethyl sulfoxide. 0.6 ml of this solution was added to 60 nil of a PDA medium (potato dextrose agar medium) at about 60 degrees C., which was mixed thoroughly in a 100-ml conical flask, and poured into a dish, where it was solidified, thereby obtaining a plate medium containing the inventive compound at 50 mg/L and 5 mg/L. On the other hand, a subject microorganism previously cultured on a plate medium was cut out using a cork borer whose diameter was 4 mm, and inoculated to the test compound-containing plate medium described above. […] The growth degree of the microorganism on the test compound-containing plate medium thus observed was compared with the growth degree of the microorganism in the untreated group, and % mycelial growth inhibition was calculated by the following equation. R=100(dc−dt)/dc wherein R=% mycelial extension inhibition, dc=flora diameter in untreated plate, dt=flora diameter in treated plate. The results obtained as described above were evaluated as one of the 5 grades according to the following criteria. […] In this Experimental Example, the fungicidal effects of the inventive compounds on Septoria tritici were examined by the methods described in the Experimental Example 5. In this Experimental Example, the inventive compounds were diluted at 1.25 mg/L.

[4] = tested on: Puccinia recondita; experiment: Efficacy test against wheat brown rust, 2 mg/L (Experimental Example 8); type: in vivo; details: sprayed at 1,000 L/ha, concentration printed 0.02 mg/L, 9 to 14 days after inoculation
Protocol: Onto a wheat plant (variety: […] The sprayed leaves were air-dried, and inoculated with spore suspension of Puccinia recondita (adjusted at 200 spores/vision, […] was added at 60 ppm) by spraying, and kept at 25 degrees C. and a high humidity for 48 hours. Thereafter, the plant was kept in a greenhouse. Nine to 14 days after inoculation, the wheat brown rust lesion degree was investigated, and the protective value was calculated by the following equation. Protective value (%)=(1-lesion degree in sprayed plot/lesion degree in unsprayed plot)×100

[5] = tested on: Septoria tritici; experiment: Assay for fungicidal effect on Septoria tritici, plate medium 0.02 mg/L (Experimental Example 7); type: cell-based
Text: In this Experimental Example, the fungicidal effects of the inventive compounds on a phytopathogenic fungi, Septoria tritici were examined and compared to the Comparative Compound (3) described in Patent Literature 1 (JPA01-93574) by the methods described below. […] The subject microorganism previously cultured on a plate medium was cut out using a cork borer whose diameter was 4 mm, and inoculated to the test compound-containing plate medium described above. […] The growth degree of the microorganism on the test compound-containing plate medium thus observed was compared with the growth degree of the microorganism in the untreated group, and % mycelial growth inhibition was calculated by the following equation. R=100(dc−dt)/dc wherein R=% mycelial extension inhibition, dc=flora diameter in untreated plate, dt=flora diameter in treated plate. The results obtained as described above were evaluated as one of the 5 grades according to the following criteria. <Growth Inhibition Grade> […]

SMILES	lesion degree [1]	EC80 [2] [µg/mL]	inhibition at 1.25 µg/mL [3] [%]	degree (wheat brown rust lesion degree) [4]	grade (growth inhibition grade) [5]
CC1(C)CC[C@H](Cc2ccc(Cl)cc2)[C@@]1(O)Cn1cncn1 (racemic) [comparative compound (I), (1RS,5SR)-5-(4-chlorobenzyl)-2,2-dimethyl-1-(1H-1,2,4-triazol-1-ylmethyl)cyclopentanol, reference compound]	3 (10% or higher and less than 30%)	0.4 (≈ 1.25 µM)	40 to 60	–	–
CC1(C)CC[C@@H](Cc2ccc(F)cc2)[C@]1(O)Cn1cncn1 (racemic) [Compound (3)]	–	–	–	3 (10% or higher and less than 30%)	2 (% Mycerial growth inhibition of less than 40 to 20% or higher)
